Measured values reported in patent US20060153897A1, “Zinc-containing foods” (priority 2001, published 2006).

Assays:
Acute toxicity test = assay type: in vivo; conditions: rat, in vivo
Method: (§1) Outside the application of GLP, acute toxicity test was carried out for zinc complexes with maltol, picolinic acid, picolinamide, 6-methyl-picolinic acid, L-threonine and L-valine.

[1] = test system: Salmonella typhimurium TA 100, TA 1535, TA 98 and TA 1537; experiment: Mutagenicity test (Ames) using microorganisms; assay type: cell-based; conditions: for growth inhibition: high concentrations; for mutation-inducing ability: Salmonella typhimurium TA 100, TA 1535, TA 98, TA 1537, compared with solvent control
Excerpt: (§2) As a mutagenicity test (Ames) using microorganisms, mutation-inducing ability of zinc complexes with maltol, picolinic acid, picolinamide, 6-methyl-picolinic acid, L-threonine and L-valine was examined using Salmonella typhimurium TA 100, TA 1535, TA 98 and TA 1537 and Escherichia coli WP 2 uvr A.

female and male rats = experiment: Acute toxicity test; assay type: in vivo; conditions: female and male rats, 2, 8 and 15 days after administration of 2,000 mg/kg
Method: as §1

[2] = test system: Escherichia coli WP 2 uvr A; experiment: Mutagenicity test (Ames) using microorganisms; assay type: cell-based; conditions: compared with solvent control
Excerpt: as §2

[3] = ligand per se, strain not stated

| Molecule | growth inhibition [1, 3] | mutation-inducing ability [1] | change in normal state and autopsy compared with solvent control group (female and male rats) | mutation-inducing ability [2] | further results |
| --- | --- | --- | --- | --- | --- |
| Cc1occc(=O)c1O [maltol, reference compound] | growth inhibition at high concentrations | – | – | – | LD50 at 15 days (Acute toxicity test; female): 1590 mg/kg; LD50 at 15 days (Acute toxicity test; male): 1680 mg/kg |
| bis(maltol)/zinc complex [zinc complex with maltol] | – | very weakly positive | – | – | growth inhibition ([1]; TA 1535 strain): growth inhibition at high concentrations |
| O=C([O-])c1ccccn1.O=C([O-])c1ccccn1.[Zn+2] [zinc complex with picolinic acid] | – | very weakly positive | no special change | – | growth inhibition ([1]; TA 98, TA 1537 strains): growth inhibition at high concentrations |
| O=C(O)c1ccccn1 [picolinic acid, reference compound] | growth inhibition at high concentrations | – | – | – | – |
| Cc1cccc(C(=O)[O-])n1.Cc1cccc(C(=O)[O-])n1.[Zn+2] [bis(6-methylpicolinic acid)/zinc complex] | – | no mutation-inducing ability | no special change | no mutation-inducing ability | – |
| CC(C)[C@H](N)C(=O)[O-].CC(C)[C@H](N)C(=O)[O-].[Zn+2] [zinc complex with L-valine] | – | no mutation-inducing ability | no special change | no mutation-inducing ability | – |
